Laboratory results taken from US8754226B2, “Piperidinyl-substituted lactams as GPR119 modulators” (Array BioPharma Inc., priority 2010, dated 2014).
Structures can show the parent of a compound that is named as a salt.

Test system: modified version of the GPR119 receptor (94% identity to human receptor)
Test: cAMP production assay (LANCE cAMP kit, TR-FRET) in HEK-293 cells
Type: cell-based
Settings: for cAMP production in HEK-293 cells: HEK-293 cells stably expressing modified GPR119, test compounds 0.2 nM to 10 μM, one-hour incubation at ambient temperature; for Fold over baseline: increase in cAMP relative to basal levels, agonist activity if 1.5-fold or greater
Protocol: The assay utilized HEK-293 cells that stably express a modified version of the GPR119 receptor (94% identity to human receptor), under the control of a CMV promoter containing a tet-on element for tetracycline-inducible expression. GPR119 agonist-induced cyclic AMP (cAMP) production was measured in this cell line using the LANCE cAMP kit (Perkin Elmer, Waltham, Mass.). To generate a working stock of cells for the assay, cells were treated overnight with 1 μg/mL doxycycline at 37° C. in the presence of 5% CO2 to induce receptor expression. Cells were then harvested by enzymatic dissociation with 0.05% trypsin, resuspended in freezing medium (DMEM growth medium with 10% each of fetal bovine serum and DMSO), aliquoted and frozen at −80° C. On the day of the assay, frozen cells were thawed, washed 1× in PBS and resuspended in Hank's buffered salt solution (HBSS) containing 5 mM HEPES, 0.1% BSA and Alexa Fluor 647-conjugated anti-cAMP antibody (diluted 1:100). The cell suspension was then transferred to a Proxiplate Plus white 384-well assay plate (Perkin-Elmer) at 2000 cells/well. Test compounds at final concentrations ranging from 0.2 nM to 10 μM were added to the assay plate, followed by a one-hour incubation at ambient temperature (volume=10 μL/well). DMSO concentration was held constant at 0.5%. After incubation with test compounds, 10 μL of a detergent buffer containing a biotinylated cAMP/Europium-conjugated streptavidin complex (Europium-labeled cAMP tracer) were added to each well on the assay plate, followed by a 2-hour incubation at ambient temperature. During this incubation cAMP released from lysed cells competes with the Europium-labeled cAMP tracer for binding to the Alexa Fluor 647-conjugated antibody. […] Cellular cAMP levels were then determined by interpolation of raw signal data using a cAMP standard curve. Compounds were determined to have agonist activity if they stimulated a 1.5-fold or greater increase in cAMP relative to basal levels.

SMILES	cAMP production in HEK-293 cells [nmol]	Fold over baseline
CSc1cnc(N2CCC(N3CC[C@H](Nc4ccc(S(C)(=O)=O)cc4F)C3=O)CC2)nc1 [Example 30, (S)-3-(2-fluoro-4-(methylsulfonyl)phenylamino)-1-(1-(5-(methylthio)pyrimidin-2-yl)piperidin-4-yl)pyrrolidin-2-one]	6.6	2.0
CS(=O)(=O)c1ccc(N[C@H]2CCN(C3CCN(c4ncc(-c5cn[nH]c5)cn4)CC3)C2=O)c(F)c1 [Example 31, (S)-1-(1-(5-(1H-pyrazol-4-yl)pyrimidin-2-yl)piperidin-4-yl)-3-(2-fluoro-4-(methylsulfonyl)phenylamino)pyrrolidin-2-one]	14.5	2.9
Cn1nccc1-c1cnc(N2CCC(N3CC[C@H](Nc4ccc(S(C)(=O)=O)cc4F)C3=O)CC2)nc1 [Example 32, (S)-3-(2-fluoro-4-(methylsulfonyl)phenylamino)-1-(1-(5-(1-methyl-1H-pyrazol-5-yl)pyrimidin-2-yl)piperidin-4-yl)pyrrolidin-2-one]	10.9	2.4
Cn1cc(-c2cnc(N3CCC(N4CC[C@H](Nc5ccc(S(C)(=O)=O)cc5F)C4=O)CC3)nc2)cn1 [Example 33, (S)-3-(2-fluoro-4-(methylsulfonyl)phenylamino)-1-(1-(5-(1-methyl-1H-pyrazol-4-yl)pyrimidin-2-yl)piperidin-4-yl)pyrrolidin-2-one]	15.9	3.3
CCc1cnc(N2CCC(N3CC[C@H](Nc4ccc(S(=O)(=O)CC)cc4F)C3=O)CC2)nc1 [Example 34, (S)-1-(1-(5-ethylpyrimidin-2-yl)piperidin-4-yl)-3-(4-(ethylsulfonyl)-2-fluorophenylamino)pyrrolidin-2-one]	11.4	2.8
CCc1cnc(N2CCC(N3CC[C@H](Nc4cc(C)c(S(C)(=O)=O)cc4F)C3=O)CC2)nc1 [Example 35, (S)-1-(1-(5-ethylpyrimidin-2-yl)piperidin-4-yl)-3-(2-fluoro-5-methyl-4-(methylsulfonyl)phenylamino)pyrrolidin-2-one]	14.5	4.1
CCc1cnc(N2CCC(N3CC[C@H](Nc4cc5c(cc4Cl)C(=O)CCO5)C3=O)CC2)nc1 [Example 36]	17.4	3.2
CCc1cnc(N2CCC(N3CC[C@H](N(C)c4cc(F)c(S(C)(=O)=O)cc4F)C3=O)CC2)nc1 [Example 37, (S)-3-((2,5-difluoro-4-(methylsulfonyl)phenyl)(methyl)amino)-1-(1-(5-ethylpyrimidin-2-yl)piperidin-4-yl)pyrrolidin-2-one trifluoroacetate]	23.4	3.4
CS(=O)(=O)c1ccc(O[C@@H]2C(=O)N(C3CCN(c4cnc(Cl)cn4)CC3)C[C@@H]2O)c(F)c1 [Example 39, (3S,4S)-1-(1-(5-chloropyrazin-2-yl)piperidin-4-yl)-3-(2-fluoro-4-(methylsulfonyl)phenoxy)-4-hydroxypyrrolidin-2-one]	20.6	3.7
CCc1cnc(N2CCC(N3CCC[C@H](Nc4ccc(S(C)(=O)=O)cc4F)C3=O)CC2)nc1 [Example 40, (S)-1′-(5-ethylpyrimidin-2-yl)-3-(2-fluoro-4-(methylsulfonyl)phenylamino)-[1,4′-bipiperidin]-2-one]	12.4	2.2
CS(=O)(=O)c1ccc(N[C@H]2CCCN(C3CCN(c4ncc(C(F)(F)F)cn4)CC3)C2=O)c(F)c1 [Example 41, (S)-3-(2-fluoro-4-(methyl-sulfonyl)phenylamino)-1′-(5-(trifluoromethyl)pyrimidin-2-yl)-1,4′-bipiperidin-2-one]	7.4	1.7
CCCc1cnc(N2CCC(N3CCC[C@H](Nc4ccc(S(C)(=O)=O)cc4F)C3=O)CC2)nc1 [Example 42, (S)-3-(2-fluoro-4-(methylsulfonyl)phenylamino)-1′-(5-propylpyrimidin-2-yl)-[1,4′-bipiperidin]-2-one]	5.7	2.1
Cc1cnc(N2CCC(N3CCC[C@H](Nc4ccc(S(C)(=O)=O)cc4F)C3=O)CC2)nc1 [Example 43, (S)-3-(2-fluoro-4-(methylsulfonyl)phenylamino)-1′-(5-methylpyrimidin-2-yl)-[1,4′-bipiperidin]-2-one]	6.9	1.7
CS(=O)(=O)c1ccc(N[C@H]2CCCN(C3CCN(c4cnc(Cl)cn4)CC3)C2=O)c(F)c1 [Example 44, (S)-1′-(5-chloropyrazin-2-yl)-3-(2-fluoro-4-(methylsulfonyl)phenylamino)-[1,4′-bipiperidin]-2-one]	20.4	4.1
CCc1cnc(N2CCC(N3CCC[C@H](Nc4cc(F)c(S(C)(=O)=O)cc4F)C3=O)CC2)nc1 [Example 45, (S)-3-(2,5-difluoro-4-(methylsulfonyl)phenylamino)-1′-(5-ethylpyrimidin-2-yl)-[1,4′-bipiperidin]-2-one]	13.3	2.3
CCCCCCCCCCc1cnc(N2CCC(N3CCC[C@H](Nc4cc(F)c(S(C)(=O)=O)cc4F)C3=O)CC2)nc1 [Example 46, (S)-1′-(5-decylpyrimidin-2-yl)-3-(2,5-difluoro-4-(methylsulfonyl)phenylamino)-[1,4′-bipiperidin]-2-one]	10.7	2.2
CS(=O)(=O)c1cc(F)c(N[C@H]2CCCN(C3CCN(c4ncc(I)cn4)CC3)C2=O)cc1F [Example 47, (S)-3-(2,5-difluoro-4-(methylsulfonyl)phen-ylamino)-1′-(5-iodopyrimidin-2-yl)-[1,4′-bipiperidin]-2-one]	9.3	2.0
CCc1cnc(N2CCC(N3CCC[C@H](Nc4cc(Cl)c(S(C)(=O)=O)cc4F)C3=O)CC2)nc1 [Example 48, (S)-3-(5-chloro-2-fluoro-4-(methyl-sulfonyl)phenylamino)-1′-(5-ethylpyrimidin-2-yl)-[1,4′-bipiperidin]-2-one]	16.9	3.0
CCc1cnc(N2CCC(N3CCC[C@H](Nc4c(F)cc(S(C)(=O)=O)cc4F)C3=O)CC2)nc1 [Example 49, (S)-3-(2,6-difluoro-4-(methylsulfonyl)phen-ylamino)-1′-(5-ethylpyrimidin-2-yl)-[1,4′-bipiperidin]-2-one]	10.6	2.2
CS(=O)(=O)c1cc(F)c(N[C@H]2CCCN(C3CCN(c4ncc(Cl)cn4)CC3)C2=O)cc1F [Example 50, (S)-1′-(5-chloropyrimidin-2-yl)-3-(2,5-difluoro-4-(methylsulfonyl)phenylamino)-[1,4′-bipiperidin]-2-one]	11.4	2.3
CS(=O)(=O)c1cc(F)c(N[C@H]2CCCN(C3CCN(c4ncc(C#N)cn4)CC3)C2=O)cc1F [Example 51, (S)-2-(3-(2,5-difluoro-4-(methylsulfonyl)phenylamino)-2-oxo-[1,4′-bipiperidin]-1′-yl)pyrimidine-5-carbonitrile]	8.8	2.7
CS(=O)(=O)c1cc(F)c(N[C@H]2CCCN(C3CCN(c4ccc(Cl)nn4)CC3)C2=O)cc1F [Example 52, (S)-1′-(6-chloropyridazin-3-yl)-3-(2,5-difluoro-4-(methylsulfonyl)phenylamino)-[1,4′-bipiperidin]-2-one]	19.6	4.6
CS(=O)(=O)c1cc(F)c(N[C@H]2CCCN(C3CCN(c4ccc(C(F)(F)F)cn4)CC3)C2=O)cc1F [Example 54, (S)-3-(2,5-difluoro-4-(methylsulfonyl)phen-ylamino)-1′-(5-(trifluoromethyl)pyridin-2-yl)-[1,4′-bipiperidin]-2-one]	7.3	2.3
CCc1cnc(N2CCC(N3CCC[C@H](Nc4ccc(S(C)(=O)=O)cc4C(F)(F)F)C3=O)CC2)nc1 [Example 55, (S)-1′-(5-ethylpyrimidin-2-yl)-3-(4-(methylsulfonyl)-2-(trifluoromethyl)phenylamino)-[1,4′-bipiperidin]-2-one]	9.3	2.6
CCc1cnc(N2CCC(N3CCC[C@H](Nc4ccc(S(C)(=O)=O)c(Cl)c4)C3=O)CC2)nc1 [Example 56, (S)-3-(3-chloro-4-(methylsulfonyl)phen-ylamino)-1′-(5-ethylpyrimidin-2-yl)-[1,4′-bipiperidin]-2-one]	18.0	2.4
